Measured values: patent publication US20230190754A1, “Therapeutic combinations for the treatment of Progressive Fibrosing interstitial lung diseases” (Boehringer Ingelheim International GmbH, priority 2021, published 2023)
Marks after values point to notes of the source that are not given here.

Tested on: IPF patients
Test: Phase II clinical trial in IPF patients: Treatment Emergent Adverse Events (safety/tolerability), up to 13 weeks
Conditions: 18 mg b.i.d.
[1] = AF-group (antifibrotic background)
[2] = AF-group (antifibrotic background), listed as Compound of Formula III
[3] = AF-group (antifibrotic background), listed as active agent
[4] = AF-group, nintedanib background medication sub-group
[5] = AF-group, nintedanib background
[6] = AF-group, nintedanib background, listed as Compound of Formula III
[7] = AF-group, nintedanib background, listed as active agent
[8] = AF-group, nintedanib background, listed as compound of formula III
[9] = AF-group, nintedanib background, males
[10] = AF-group, pirfenidone background medication sub-group
[11] = AF-group, pirfenidone background

[O-][S@+]1CCc2nc(N3CCC(c4ncc(Cl)cn4)CC3)nc(NC3(CO)CCC3)c21 [Comp. of form. III]
SAE: Condition aggravated, patients n [1]: 2
SAE: General disorders and administration side conditions, bracketed fatal event [ ]*, patients % [1]: (2.1)]* %
SAE: General disorders and administration side conditions, bracketed fatal event [ ]*, patients n [1]: [1
SAE: General disorders and administration side conditions, patients % [1]: (4.1) %
SAE: General disorders and administration side conditions, patients n [1]: 2
SAE: Nervous system disorders, patients % [1]: (2.0) %
SAE: Nervous system disorders, patients n [1]: 1
SAE: Peripheral nerve paresis, patients % [1]: (2.0) %
SAE: Peripheral nerve paresis, patients n [1]: 1
SAE: Vascular disorders, patients % [1]: (2.0) %
SAE: Vascular disorders, patients n [1]: 1
SAE: Vasculitis (fatal event), patients % [1]: (2.0)* %
SAE: Vasculitis (fatal event), patients n [1]: 1
Serious AEs (patients with ≥1 SAE), patients % [1]: (6.1) %
Serious AEs (patients with ≥1 SAE), patients n [1]: 3
Severe AEs, patients % [1]: (4.1) %
Severe AEs, patients n [1]: 2
AE: Diarrhoea, patients % (AF-group (antifibrotic background), listed as Comp. of Form. III): 30.6%
AE: Diarrhoea, patients % [2]: (30.6) %
AE: Gastrointestinal disorders, patients % [2]: (36.7) %
Any AE, patients % [2]: (73.5) %
AE: Diarrhoea, patients % [3]: 30.6%
Any AE, patients % [3]: 73.5%
AE: Diarrhoea, patients % [4]: 46.2%
AE: gastrointestinal disorder, patients % [4]: 46.2%
Dyspepsia leading to discontinuation of trial treatment, patients % [5]: (3.8) %
Dyspepsia leading to discontinuation of trial treatment, patients n [5]: 1
Gastrointestinal disorders leading to discontinuation of trial treatment, patients n [5]: 4
Patients with AEs leading to discontinuation of the trial drug, % [5]: 26.9%
Patients with any AE, % [5]: 80.8%
Patients with investigator defined drug related AEs, % [5]: 46.2%
Patients with other significant AEs, % [5]: 26.9%
Patients with pre-specified AEs of special interest, % [5]: 0%
Patients with serious AEs, % [5]: 3.8%
Patients with severe AEs, % [5]: 3.8%
Serious AEs: Congenital anomaly/birth defect, % [5]: 0%
Serious AEs: Immediately life threatening, % [5]: 0%
Serious AEs: Other comparable medical criteria, % [5]: 0%
Serious AEs: Persistent or significant disability, % [5]: 0%
Serious AEs: Requires or prolongs hospitalization, % [5]: 3.8%
Serious AEs: Results in Death, % [5]: 0%
Diarrhoea leading to discontinuation of trial treatment, patients % [6]: (11.5) %
Diarrhoea leading to discontinuation of trial treatment, patients n [6]: 3
Gastrointestinal disorders leading to discontinuation of trial treatment, patients % [6]: (15.4) %
Diarrhoea leading to discontinuation of trial treatment, patients n [7]: 3
Gastrointestinal disorders leading to discontinuation of trial treatment, patients % [7]: 15.4%
Diarrhoea leading to discontinuation of trial treatment, patients % [8]: 11.5%
Gastrointestinal disorders leading to discontinuation of trial treatment, patients % [8]: 15.4%
Moderate cases of diarrhoea, % [9]: 2.1%
Severe case of diarrhoea, % [9]: 1.0%
AE: Diarrhoea, patients % [10]: 13.0%
AE: gastrointestinal disorder, patients % [10]: 26.1%
Patients with AEs leading to discontinuation of the trial drug, % [11]: 13.0%
Patients with any AE, % [11]: 65.2%
Patients with investigator defined drug related AEs, % [11]: 26.1%
Patients with other significant AEs, % [11]: 4.3%
Patients with pre-specified AEs of special interest, % [11]: 4.3%
Patients with serious AEs, % [11]: 8.7%
Patients with severe AEs, % [11]: 4.3%
Serious AEs: Congenital anomaly/birth defect, % [11]: 0%
Serious AEs: Immediately life threatening, % [11]: 0%
Serious AEs: Other comparable medical criteria, % [11]: 0%
Serious AEs: Persistent or significant disability, % [11]: 0%
Serious AEs: Requires or prolongs hospitalization, % [11]: 8.7%
Serious AEs: Results in Death, % [11]: 4.3%
Gastrointestinal disorders leading to discontinuation of trial treatment, patients (in words) (AF-group, pirfenidone background, listed as active agent): not a single patient
Gastrointestinal disorders leading to discontinuation of trial treatment, patients (in words) (AF-group, pirfenidone background, listed as compound of formula III): no discontinuations of the trial treatment at all
AE resulting in death, patients % (Non-AF+AF total): (2.1) %
AE resulting in death, patients n (Non-AF+AF total): 2
AE: Abdominal pain, patients % (Non-AF+AF total): (2.1) %
AE: Abdominal pain, patients n (Non-AF+AF total): 2
AE: Arthralgia, patients % (Non-AF+AF total): (2.1) %
AE: Arthralgia, patients n (Non-AF+AF total): 2
AE: Asthenia, patients % (Non-AF+AF total): (4.1) %
AE: Asthenia, patients n (Non-AF+AF total): 4
AE: Bronchitis, patients % (Non-AF+AF total): (2.1) %
AE: Bronchitis, patients n (Non-AF+AF total): 2
AE: Condition aggravated, patients % (Non-AF+AF total): (2.1) %
AE: Condition aggravated, patients n (Non-AF+AF total): 2
AE: Constipation, patients % (Non-AF+AF total): (2.1) %
AE: Constipation, patients n (Non-AF+AF total): 2
AE: Cough, patients % (Non-AF+AF total): (7.2) %
AE: Cough, patients n (Non-AF+AF total): 7
AE: Decreased appetite, patients % (Non-AF+AF total): (3.1) %
AE: Decreased appetite, patients n (Non-AF+AF total): 3
AE: Diarrhoea, patients % (Non-AF+AF total): (23.7) %
AE: Diarrhoea, patients n (Non-AF+AF total): 23
AE: Dizziness, patients % (Non-AF+AF total): (2.1) %
AE: Dizziness, patients n (Non-AF+AF total): 2
AE: Dyspepsia, patients % (Non-AF+AF total): (5.2) %
AE: Dyspepsia, patients n (Non-AF+AF total): 5
AE: Dyspnoea, patients % (Non-AF+AF total): (3.1) %
AE: Dyspnoea, patients n (Non-AF+AF total): 3
AE: Fatigue, patients % (Non-AF+AF total): (3.1) %
AE: Fatigue, patients n (Non-AF+AF total): 3
AE: Flatulence, patients % (Non-AF+AF total): (5.2) %
AE: Flatulence, patients n (Non-AF+AF total): 5
AE: Gastrointestinal disorders, patients % (Non-AF+AF total): (32.0) %
AE: Gastrointestinal disorders, patients n (Non-AF+AF total): 31
AE: General disorders and administration site conditions, patients % (Non-AF+AF total): (16.5) %
AE: General disorders and administration site conditions, patients n (Non-AF+AF total): 16
AE: Headache, patients % (Non-AF+AF total): (6.2) %
AE: Headache, patients n (Non-AF+AF total): 6
AE: Infections and infestations, patients % (Non-AF+AF total): (14.4) %
AE: Infections and infestations, patients n (Non-AF+AF total): 14
AE: Investigations, patients % (Non-AF+AF total): (15.5) %
AE: Investigations, patients n (Non-AF+AF total): 15
AE: Metabolism and nutrition disorders, patients % (Non-AF+AF total): (4.1) %
